In patent US9538734B2, “Germ cell ablation compounds and uses thereof” (THE GENERAL HOSPITAL CORPORATION, priority 2013, dated 2017):

Experiments:
dCTPP1 = target: T1, dCTPP1 (Homo sapiens, UniProt Q9H773); experiment: Western blot confirmation of binding to primordazine beads
T1 sequence (Q9H773 1-170): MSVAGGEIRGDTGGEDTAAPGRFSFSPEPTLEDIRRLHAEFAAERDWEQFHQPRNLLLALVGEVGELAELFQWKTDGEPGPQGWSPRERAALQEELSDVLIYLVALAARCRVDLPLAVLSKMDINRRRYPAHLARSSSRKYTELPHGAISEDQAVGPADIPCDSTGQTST

zebrafish embryos [1] = experiment: Observable effects on embryonic development, apoptosis; assay type: in vivo
Description: (§1) In an effort to discover pathways essential for PGC maintenance, a small molecule screen for compounds that promote disappearance of PGCs was performed. The screen was performed with transgenic zebrafish embryos that express GFP exclusively in PGCs. Of 7,000 small molecules screened, three caused disappearance of PGCs without causing other observable changes in embryonic development. The three PGC-ablating compounds were close structural analogs of each other, and the representative compound from this class was named primordazine (FIG. 1A). […] PGC loss was confirmed by multiple PGC lineage markers (FIG. 1B).

pgam5 = target: T2, pgam5 (Homo sapiens, UniProt Q96HS1); experiment: Western blot confirmation of binding to primordazine
T2 sequence (Q96HS1 1-289): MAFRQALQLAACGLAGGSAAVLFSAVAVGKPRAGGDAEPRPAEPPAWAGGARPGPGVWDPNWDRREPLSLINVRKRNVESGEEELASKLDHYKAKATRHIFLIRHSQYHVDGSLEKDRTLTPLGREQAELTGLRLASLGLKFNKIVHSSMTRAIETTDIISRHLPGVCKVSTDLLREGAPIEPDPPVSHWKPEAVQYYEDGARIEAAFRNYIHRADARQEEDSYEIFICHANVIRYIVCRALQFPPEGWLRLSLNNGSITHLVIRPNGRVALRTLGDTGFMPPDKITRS

PRE-containing mRNAs = experiment: Translation of GFP mRNA tagged with nanos1 3′UTR in mammalian cell lines (western blotting); assay type: cell-based; conditions: GFP mRNA tagged with 120 bases from nanos1 3′UTR, transfected mammalian cell lines
Description: GFP mRNA was tagged with 120 bases from the nanos1 3′UTR and transfected into various mammalian cell lines. The effect of primordazine was determined by western blotting.

[2] = test system: primordazine response element (PRE) of nanos1 3′ UTR; experiment: Translation of injected GFP reporter RNA fused to nanos1 3′ UTR / PRE; assay type: in vivo, zebrafish; conditions: for translation of EGFP: EGFP mRNA fused to 120 bases of nanos1 3′UTR
Excerpt: During the process of confirming PGC loss in primordazine-treated embryos, it was discovered that GFP translation was highly sensitive to primordazine treatment when fused to the 3′ UTR of the nanos1 gene, but not when fused to other 3′ UTRs. The 3′ UTR of the nanos1 gene was examined for elements capable of conferring primordazine sensitivity. […] This sequence is called the Primordazine Response Element (PRE). […] When other sequences from the nanos1 3′ UTR are used, primordazine has no effect on GFP expression.
mRNA translation is tested using the same GFP reporter depicted in FIG. 2. This reporter consists of GFP mRNA fused to the nanos1 3′ UTR with a mutant miR-430 site. When injected into one-cell stage zebrafish, GFP is expressed in both germ and somatic cells (Giraldez, A. J. et al. Zebrafish MiR-430 promotes deadenylation and clearance of maternal mRNAs. Science 312, 75-79 (2006); Mishima, Y. et al. Differential regulation of germline mRNAs in soma and germ cells by zebrafish miR-430. Curr Biol 16, 2135-2142 (2006)). […] As such, the quantity of mRNA is increased as detected by qPCR, but the quantity of GFP protein diminishes, as determined by quantitative fluorescence microscopy (see FIG. 2 for an example). Mutant animals were injected with the GFP reporter mRNA and quantify the amount of mRNA and protein present at 11 and 24 hours. Attention was paid to the effects of the mutations on baseline translation of GFP and also for effects of the mutations on responsiveness to primordazine.

DHX9 = experiment: Primordazine affinity matrix pull-down with iTRAQ; assay type: binding; conditions: whole zebrafish lysates, with and without competition from free primordazine
Description: A primordazine derivative was synthesized in which an 8-atom linker was appended from the indole nitrogen, terminating in a carboxylic acid (FIG. 4B). […] The derivatized primordazine was then coupled to Affi-Gel 102 agarose beads, generating an affinity matrix (FIG. 4C). The affinity matrix was incubated with whole zebrafish lysates with and without competition from free primordazine, and iTRAQ was used to identify any primordazine-binding proteins. An RNA helicase, DHX9, was identified as binding specifically to the affinity matrix, along with two RNA-binding adapter proteins HNRNPH1 and HNRNPA2B1.

GFP labeled PGCs = experiment: Count of GFP labeled PGCs in tilapia embryos exposed to primordazine; assay type: in vivo, Tilapia (Oreochromis niloticus); conditions: for reduction in PGCs number: 5 uM; for GFP labeled cells in midline trunk region: 1 cell stage embryos, 3 day old; for reduction in PGCs number compared to control: after 3 days, 28° C.
Description: Tilapia (Oreochromis niloticus) lines used in this study are derived from a Brazilian strain obtained from a US commercial producer. To study PGCs, assays were performed on embryos from female tilapia carrying the Zpc5:eGFP:tnos 3′UTR construct which produce embryos with GFP labeled PGCs. The tilapia Zpc5 promoter is an oocyte specific promoter, active during oogenesis prior to the first meiotic division. As such, all embryos from an heterozygous transgenic female inherit the eGFP:tnos 3′UTR mRNA, which localizes and become expressed exclusively in PGCs through the action of cis-acting RNA element in their 3′UTR (tilapia nanos 3′UTR). In this system GFP expression in the embryo is strictly maternal. Thus, similarly to zebrafish nos1 3′UTR, tilapia nanos 3′ UTR (tnos 3′UTR) can deliver mRNA and subsequently heterologous protein expression to the PGCs in developing embryos. In this line, GFP expression is first observed in 2 day old embryos, progeny of transgenic female. At 3 days post fertilization (dpf) in 28° C. water, GFP-expressing cells coalesced in two bilateral rows on the midline above the intestine (FIG. 41A). The GFP labeled primordial germ cell can be visualized for up to 6 days post fertilization but fluorescence starts to fade between days 4 & 5. Primordazine treatment: Embryos at different developmental stages were placed into hatching water at 28° C. in plastic Petri dishes with gentle stirring. The first cell division takes place approximately two hours post fertilization (hpf) and gastrulation begins at around 10 hpf. We transferred pre-gastrula (2 hpf, 5 hpf) and post-gastrula embryos (15 hpf) to 96 well plates (1-2 embryos/well) prefilled with hatching water supplemented with 2 fold dilution series of primordazine from 20 uM to 2.5 uM or DMSO (control). The 96 well plate was placed under gentle stirring in a temperature control room at 28° C. At time intervals, embryos were analyzed for GFP expression under a fluorescence dissecting microscope (Zeiss Stereo Discovery.V8) equipped with a GFP filter set. To quantify primordazine activity, 3 day old embryos were placed in fresh water and PGCs were counted. At this stage, in the non-treated control group, approximately 95% of PGCs have migrated to the genital ridges.

zebrafish embryos [3] = experiment: Sex of adults after embryonic treatment; assay type: in vivo; conditions: embryos treated during early development
nanos1 mRNA = nanos1 mRNA level (quantitative PCR) and localization (fluorescent in situ hybridization, confocal microscopy); assay type: in vivo, zebrafish
Excerpt: Therefore, mRNA destabilization is not the mechanism by which primordazine blocks nanos1 expression. Next, fluorescent in situ hybridization and confocal microscopy were used to examine the localization of nanos1 mRNA within germ cells.

[4] = test system: primordial germ cells (PGCs); experiment: PGC ablation in transgenic zebrafish embryos expressing GFP in PGCs (small molecule screen); assay type: in vivo
Description: as §1
Optimization is driven primarily by potency, meaning that each compound acquired is tested for potency, and potency changes influence subsequent rounds of compound design. For testing compounds, 3-5 transgenic zebrafish embryos (expressing GFP from the vasa promoter) are placed in each well of clear-bottom, black-wall 96 well plates. Embryos are treated with DMSO or varying doses of a compound in two-fold dilutions from 8 uM to 16 nM, beginning at 2 h postfertilization. At 24 h, the plate is loaded onto the screening microscope, which systematically scans wells and captures fluorescent images of fish in each well. The efficacy of each compound dose in ablating PGCs is recorded, yielding an EC50 for each compound.

deadend 3′UTR = experiment: Translation of GFP message tagged with fragments of the deadend 3′UTR; conditions: in vivo
Excerpt: FIG. 26 illustrates that, in addition to regulating the translation of proteins containing elements from the nanos1 3′ UTR, primordazine blocks translation of proteins from mRNAs containing the deadend 3′UTR.

SMILES: CCC(Sc1nnc2c3ccccc3n(CC)c2n1)C(=O)Nc1cccc(C(C)=O)c1 (centres unmarked) [primordazine]
- binding of dCTPP1 (dCTPP1): bind
- apoptosis (zebrafish embryos [1]; FIG. 12): does not cause apoptosis
- effect on development or organogenesis (zebrafish embryos [1]; effective doses): no visible effect
- binding of pgam5 (pgam5): bind
- translation of PRE-containing mRNAs (PRE-containing mRNAs): inhibits translation
- translation of EGFP ([2]; absence of polyadenylation): effectively blocked translation
- translation of EGFP ([2]; polyadenylated in vitro prior to injection): failed to block translation
- translation of GFP protein ([2]; GFP mRNA followed by the nanos1 3′ UTR): prevents its translation
- stability of GFP reporter mRNA ([2]; GFP mRNA with nanos1 3′ UTR): stabilizes the mRNA
- translation of GFP RNA ([2]; PRE placed in its 3′ UTR, RNA injected into zebrafish): blocked
- GFP expression ([2]; other sequences from the nanos1 3′ UTR): no effect
- binding of DHX9 (DHX9): Binds
- reduction in PGCs number (GFP labeled PGCs; later time point (13 hour old embryos)): 41%
- reduction in PGCs number (GFP labeled PGCs; treatment begins at 2 hpf): 72%
- GFP labeled cells in midline trunk region (GFP labeled PGCs; 10 uM): marked reduction in number
- reduction in PGCs number compared to control (GFP labeled PGCs; 10 uM, 5 hours old embryos): 47%
- GFP labeled cells in midline trunk region (GFP labeled PGCs; 20 uM): complete disappearance
- reduction in PGCs number compared to control (GFP labeled PGCs; 20 uM, 5 hours old embryos): 67%
- level of GFP intensity in PGCs (GFP labeled PGCs; 5 hours old embryos): reduced
- sex when adult (zebrafish embryos [3]): tend to be males
- localization of nanos1 mRNA within germ cells (nanos1 mRNA; fluorescent in situ hybridization, confocal microscopy): became localized to discrete puncta
- nanos1 mRNA levels (nanos1 mRNA; quantitative PCR): no decrease
- concentration for maximal efficacy of germ cell ablation ([4]; egg / hatching water concentration): 6 µM
- PGC-ablating activity ([4]; zebrafish embryos, GFP in PGCs): ablates PGCs in a dose-dependent manner
- effective concentration in zebrafish embryos ([4]; zebrafish, in vivo): high nanomolar to low micromolar
- translation of EGFP from mRNAs containing the deadend 3′UTR (deadend 3′UTR): blocks the translation
